Read-outs that look alike come from different tables or passages of the source.
Tests used:
MOLM-14-MR2 tumors = test: MOLM-14-MR2 xenograft mouse model; format: in vivo; settings: MOLM-14-MR2 tumors (NRAS mutated), oral once per day
MOLM-14-MR2 cells = test: cells; settings: Homo sapiens, 72 h, read-out: IC50, cell viability
MOLM-13-QR cells = test: cells; settings: Homo sapiens, read-out: IC50, cell viability
FLT3 signaling = test: FLT3 inhibitor washout experiment in MOLM-14 cells; format: cell-based, human
OCI-AML3 cells = test: Cell viability assay (CellTiter-Glo 2.0); format: cell-based, human; settings: Homo sapiens, OCI-AML-3, 72 h; OCI-AML3, wild-type FLT3, 3 days; read-out: IC50, cell viability
Procedure: (§1) Human AML cell lines MV4-11, Kasumi-1, HL-60, and THP-1 were purchased from the American Type Culture Collection (Manassas, Virginia, USA). MV4-11 cells were cultured in Iscove’s Modified Dulbecco’s Medium (IMDM; Thermo Fisher Scientific, Waltham, Massachusetts, USA) supplemented with 10% (vol/vol) heat-inactivated fetal bovine serum (FBS; GE Healthcare Ltd, Chicago, Illinois, USA). […] HL-60 cells were cultured in IMDM supplemented with 20% (vol/vol) heat-inactivated FBS. […] Human AML cell lines, MOLM-13, MOLM-14, EOL-1, and OCI-AML3, were purchased from Leibniz-Institut DSMZ-Deutsche Sammlung von Mikroorganismen und Zellkulturen GmbH.
(§2) The amount of ATP in viable cells was quantified as a luminescent signal using the CellTiter-Glo 2.0 Assay (Promega Corporation, Madison, Wisconsin, USA) and EnVision (PerkinElmer Inc, Waltham, Massachusetts, USA) to determine the number of viable cells according to the manufacturers’ instructions.

MV4-11 cells = test: Cell viability assay (CellTiter-Glo 2.0); format: cell-based, human; settings: Homo sapiens, 72 h; MV4-11, FLT3-ITD, 3 days
Procedure: as §1, §2

THP-1 cells = test: Cell viability assay (CellTiter-Glo 2.0); format: cell-based, human; settings: Homo sapiens, 72 h; THP-1, wild-type FLT3, 3 days; read-out: IC50, cell viability
Procedure: as §1, §2

MOLM-13 cells = test: Cell viability assay (CellTiter-Glo 2.0); format: cell-based, human; settings: Homo sapiens
Procedure: as §1, §2

EOL-1 cells = test: Cell viability assay (CellTiter-Glo 2.0); format: cell-based, human; settings: Homo sapiens, EOL1, 72 h; EOL-1, wild-type FLT3 with FIP1L-PDGFRα, 3 days
Procedure: as §1, §2

Kasumi-1 cells = test: Cell viability assay (CellTiter-Glo 2.0); format: cell-based, human; settings: Homo sapiens, Kasumi 1, 72 h
Procedure: as §1, §2

MOLM-14 cells = test: Cell viability assay (CellTiter-Glo 2.0); format: cell-based, human; settings: Homo sapiens, MOLM-14, 72 h, 3 days, read-out: IC50, cell viability
Procedure: as §1, §2

HL-60 cells = test: Cell viability assay (CellTiter-Glo 2.0); format: cell-based, human; settings: Homo sapiens, 72 h; HL-60, wild-type FLT3, 3 days
Procedure: as §1, §2

MOLM-14-MR cells = test: cells; settings: Homo sapiens, 72 h, read-out: IC50, cell viability
MV4-11 tumors = test: MV4-11 xenograft mouse model; settings: Figure 3B
PDGFRα = target: T1, PDGFRα (Homo sapiens, UniProt P16234); test: KINOMEscan kinase binding assay; settings: kinase PDGFRA (PDGFRA)
T1 construct: purchased Eurofins (KINOMEscan service)
Procedure: (§3) Kd values were calculated from duplicate 11-point dose-response curves.
(§4) KINOMEscan kinase binding assays were performed at a Eurofins laboratory as previously described.

PDGFRβ = target: T2, PDGFRβ (Homo sapiens, UniProt P09619); test: KINOMEscan kinase binding assay; settings: kinase PDGFRB (PDGFRB)
T2 construct: purchased Eurofins (KINOMEscan service)
T2 sequence (P09619 33-1106): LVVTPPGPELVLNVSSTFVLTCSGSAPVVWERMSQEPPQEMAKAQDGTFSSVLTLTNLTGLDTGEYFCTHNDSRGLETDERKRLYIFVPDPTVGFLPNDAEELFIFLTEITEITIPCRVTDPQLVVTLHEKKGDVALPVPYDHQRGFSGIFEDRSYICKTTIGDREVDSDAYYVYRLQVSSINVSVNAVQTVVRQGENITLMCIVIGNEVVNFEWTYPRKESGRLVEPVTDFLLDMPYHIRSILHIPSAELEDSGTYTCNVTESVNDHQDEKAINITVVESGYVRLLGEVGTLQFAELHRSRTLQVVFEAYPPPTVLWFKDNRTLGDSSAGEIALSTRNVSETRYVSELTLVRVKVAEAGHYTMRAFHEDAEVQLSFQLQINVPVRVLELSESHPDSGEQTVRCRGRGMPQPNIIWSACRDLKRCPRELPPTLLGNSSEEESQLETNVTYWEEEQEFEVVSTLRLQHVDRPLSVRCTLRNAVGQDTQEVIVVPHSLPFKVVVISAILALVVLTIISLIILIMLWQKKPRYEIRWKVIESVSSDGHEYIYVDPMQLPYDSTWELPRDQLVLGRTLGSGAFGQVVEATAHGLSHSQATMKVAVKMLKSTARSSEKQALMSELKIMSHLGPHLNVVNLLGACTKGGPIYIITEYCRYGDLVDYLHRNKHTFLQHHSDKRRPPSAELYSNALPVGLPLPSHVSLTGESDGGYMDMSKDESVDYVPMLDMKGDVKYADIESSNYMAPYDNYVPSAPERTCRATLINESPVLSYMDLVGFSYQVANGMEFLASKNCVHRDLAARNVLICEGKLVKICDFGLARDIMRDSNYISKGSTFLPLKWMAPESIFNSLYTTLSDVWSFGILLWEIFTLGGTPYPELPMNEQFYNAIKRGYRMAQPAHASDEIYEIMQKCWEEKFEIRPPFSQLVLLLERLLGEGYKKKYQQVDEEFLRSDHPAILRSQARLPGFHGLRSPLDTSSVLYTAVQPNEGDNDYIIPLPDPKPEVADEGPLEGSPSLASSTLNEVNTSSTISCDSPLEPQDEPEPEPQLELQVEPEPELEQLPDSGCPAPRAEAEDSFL
Procedure: as §3, §4

KIT = target: T3, KIT (Homo sapiens, UniProt P10721); test: KINOMEscan kinase binding assay; settings: kinase KIT
T3 construct: purchased Eurofins (KINOMEscan service)
T3 sequence (P10721 26-976): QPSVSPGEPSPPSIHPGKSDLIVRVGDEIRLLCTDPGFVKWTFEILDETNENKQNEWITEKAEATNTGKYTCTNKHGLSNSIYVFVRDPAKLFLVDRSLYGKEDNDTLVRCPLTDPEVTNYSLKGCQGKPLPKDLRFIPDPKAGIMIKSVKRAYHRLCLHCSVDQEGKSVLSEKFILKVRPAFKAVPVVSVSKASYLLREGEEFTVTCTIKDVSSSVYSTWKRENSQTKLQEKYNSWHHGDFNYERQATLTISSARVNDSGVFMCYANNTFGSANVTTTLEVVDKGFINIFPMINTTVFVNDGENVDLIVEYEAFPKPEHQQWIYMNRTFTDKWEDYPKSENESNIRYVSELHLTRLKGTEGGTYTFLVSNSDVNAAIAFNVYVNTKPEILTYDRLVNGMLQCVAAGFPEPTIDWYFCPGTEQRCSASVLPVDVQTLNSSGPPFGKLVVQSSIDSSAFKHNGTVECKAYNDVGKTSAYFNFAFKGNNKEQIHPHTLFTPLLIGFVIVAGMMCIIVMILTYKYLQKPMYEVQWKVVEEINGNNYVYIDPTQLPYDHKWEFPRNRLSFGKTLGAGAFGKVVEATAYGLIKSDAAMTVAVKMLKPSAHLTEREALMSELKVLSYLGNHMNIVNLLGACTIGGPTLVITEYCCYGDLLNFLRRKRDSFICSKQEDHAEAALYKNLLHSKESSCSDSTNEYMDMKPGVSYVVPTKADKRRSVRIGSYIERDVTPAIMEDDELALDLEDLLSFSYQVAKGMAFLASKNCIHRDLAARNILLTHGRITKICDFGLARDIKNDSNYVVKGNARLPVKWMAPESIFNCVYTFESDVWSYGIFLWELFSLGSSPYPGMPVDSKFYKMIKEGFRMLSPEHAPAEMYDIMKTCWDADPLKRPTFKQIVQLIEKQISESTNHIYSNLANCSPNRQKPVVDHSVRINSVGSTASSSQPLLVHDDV
Procedure: as §3, §4

RET = target: T4, RET (Homo sapiens, UniProt P07949); test: KINOMEscan kinase binding assay
T4 construct: purchased Eurofins (KINOMEscan service)
Procedure: as §3, §4

FLT1 = target: T5, FLT1 (Homo sapiens, UniProt P17948); test: KINOMEscan kinase binding assay
T5 construct: purchased Eurofins (KINOMEscan service)
Procedure: as §3, §4

ULK2 = target: T6, ULK2 (Homo sapiens, UniProt Q8IYT8); test: KINOMEscan kinase binding assay; settings: kinase ULK2 (ULK2)
T6 construct: purchased Eurofins (KINOMEscan service)
T6 sequence (Q8IYT8 1-1036): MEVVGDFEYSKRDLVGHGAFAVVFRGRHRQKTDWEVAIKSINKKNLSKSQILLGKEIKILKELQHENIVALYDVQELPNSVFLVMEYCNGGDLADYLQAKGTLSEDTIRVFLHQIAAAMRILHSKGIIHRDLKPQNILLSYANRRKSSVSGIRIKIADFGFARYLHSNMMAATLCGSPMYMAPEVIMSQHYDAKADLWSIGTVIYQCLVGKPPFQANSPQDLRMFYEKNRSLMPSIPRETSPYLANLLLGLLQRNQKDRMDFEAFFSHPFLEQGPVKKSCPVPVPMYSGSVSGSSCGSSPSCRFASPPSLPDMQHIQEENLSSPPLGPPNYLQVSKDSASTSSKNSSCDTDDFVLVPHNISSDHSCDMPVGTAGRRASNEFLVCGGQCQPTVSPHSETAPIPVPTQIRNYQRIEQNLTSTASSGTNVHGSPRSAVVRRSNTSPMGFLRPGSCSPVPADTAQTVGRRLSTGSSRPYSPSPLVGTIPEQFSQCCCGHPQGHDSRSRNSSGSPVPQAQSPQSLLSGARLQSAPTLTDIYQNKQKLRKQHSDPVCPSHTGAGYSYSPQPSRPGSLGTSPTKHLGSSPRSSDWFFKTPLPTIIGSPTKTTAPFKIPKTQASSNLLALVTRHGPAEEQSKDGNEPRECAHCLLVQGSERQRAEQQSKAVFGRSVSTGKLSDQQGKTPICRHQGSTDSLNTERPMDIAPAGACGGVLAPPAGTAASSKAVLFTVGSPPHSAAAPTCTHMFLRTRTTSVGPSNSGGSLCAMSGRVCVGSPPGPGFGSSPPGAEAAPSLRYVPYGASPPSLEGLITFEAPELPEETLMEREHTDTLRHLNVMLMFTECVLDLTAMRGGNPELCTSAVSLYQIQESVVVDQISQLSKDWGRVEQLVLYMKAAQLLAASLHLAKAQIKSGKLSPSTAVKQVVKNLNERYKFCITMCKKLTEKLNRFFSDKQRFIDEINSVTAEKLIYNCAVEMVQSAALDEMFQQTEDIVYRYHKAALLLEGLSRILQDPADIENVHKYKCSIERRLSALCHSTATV
Procedure: as §3, §4

CSF1R/FMS = target: T7, CSF1R/FMS (Homo sapiens, UniProt P07333); test: KINOMEscan kinase binding assay
T7 construct: purchased Eurofins (KINOMEscan service)
Procedure: as §3, §4

MEK5 = target: T8, MEK5 (Homo sapiens, UniProt Q13163); test: KINOMEscan kinase binding assay; settings: kinase MEK5 (Entrez MAP2K5)
T8 construct: purchased Eurofins (KINOMEscan service)
Procedure: as §3, §4

FLT4 = target: T9, FLT4 (Homo sapiens, UniProt P35916); test: KINOMEscan kinase binding assay
T9 construct: purchased Eurofins (KINOMEscan service)
T9 sequence (P35916 25-1363): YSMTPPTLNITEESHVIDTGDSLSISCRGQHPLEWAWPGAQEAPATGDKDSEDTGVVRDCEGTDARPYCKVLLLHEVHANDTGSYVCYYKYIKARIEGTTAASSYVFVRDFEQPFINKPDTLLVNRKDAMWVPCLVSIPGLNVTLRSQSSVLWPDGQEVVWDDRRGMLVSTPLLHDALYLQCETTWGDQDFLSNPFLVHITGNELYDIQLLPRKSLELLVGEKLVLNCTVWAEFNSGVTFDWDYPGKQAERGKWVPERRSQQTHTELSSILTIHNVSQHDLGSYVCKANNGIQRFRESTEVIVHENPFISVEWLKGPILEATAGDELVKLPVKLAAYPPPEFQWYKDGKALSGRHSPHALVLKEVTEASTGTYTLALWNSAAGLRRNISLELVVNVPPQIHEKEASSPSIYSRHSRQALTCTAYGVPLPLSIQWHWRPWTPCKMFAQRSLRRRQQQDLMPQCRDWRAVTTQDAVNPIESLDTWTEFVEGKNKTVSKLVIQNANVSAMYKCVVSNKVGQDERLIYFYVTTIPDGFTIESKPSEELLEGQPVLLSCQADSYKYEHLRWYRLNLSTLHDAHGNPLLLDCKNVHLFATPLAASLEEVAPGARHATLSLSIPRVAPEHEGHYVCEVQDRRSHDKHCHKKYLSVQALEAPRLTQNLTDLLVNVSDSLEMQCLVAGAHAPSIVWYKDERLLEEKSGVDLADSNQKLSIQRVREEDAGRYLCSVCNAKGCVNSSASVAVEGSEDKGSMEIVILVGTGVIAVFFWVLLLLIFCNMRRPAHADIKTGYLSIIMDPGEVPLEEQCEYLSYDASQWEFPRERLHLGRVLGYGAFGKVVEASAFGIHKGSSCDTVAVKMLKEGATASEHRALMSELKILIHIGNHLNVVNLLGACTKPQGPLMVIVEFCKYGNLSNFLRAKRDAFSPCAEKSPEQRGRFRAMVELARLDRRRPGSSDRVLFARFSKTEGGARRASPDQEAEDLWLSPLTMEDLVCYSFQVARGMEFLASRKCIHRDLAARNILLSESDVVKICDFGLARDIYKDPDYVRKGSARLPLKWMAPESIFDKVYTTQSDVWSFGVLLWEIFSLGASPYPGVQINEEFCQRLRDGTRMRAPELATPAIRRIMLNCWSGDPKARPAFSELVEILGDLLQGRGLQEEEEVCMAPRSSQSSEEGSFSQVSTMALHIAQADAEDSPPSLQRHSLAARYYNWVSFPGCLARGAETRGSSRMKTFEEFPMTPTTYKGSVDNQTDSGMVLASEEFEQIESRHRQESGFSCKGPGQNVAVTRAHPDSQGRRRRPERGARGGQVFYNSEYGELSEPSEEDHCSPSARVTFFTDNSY
Procedure: as §3, §4

KDR/VEGFR2 = target: T10, KDR/VEGFR2 (Homo sapiens, UniProt P35968); test: KINOMEscan kinase binding assay
T10 construct: purchased Eurofins (KINOMEscan service)
T10 sequence (P35968 20-1356): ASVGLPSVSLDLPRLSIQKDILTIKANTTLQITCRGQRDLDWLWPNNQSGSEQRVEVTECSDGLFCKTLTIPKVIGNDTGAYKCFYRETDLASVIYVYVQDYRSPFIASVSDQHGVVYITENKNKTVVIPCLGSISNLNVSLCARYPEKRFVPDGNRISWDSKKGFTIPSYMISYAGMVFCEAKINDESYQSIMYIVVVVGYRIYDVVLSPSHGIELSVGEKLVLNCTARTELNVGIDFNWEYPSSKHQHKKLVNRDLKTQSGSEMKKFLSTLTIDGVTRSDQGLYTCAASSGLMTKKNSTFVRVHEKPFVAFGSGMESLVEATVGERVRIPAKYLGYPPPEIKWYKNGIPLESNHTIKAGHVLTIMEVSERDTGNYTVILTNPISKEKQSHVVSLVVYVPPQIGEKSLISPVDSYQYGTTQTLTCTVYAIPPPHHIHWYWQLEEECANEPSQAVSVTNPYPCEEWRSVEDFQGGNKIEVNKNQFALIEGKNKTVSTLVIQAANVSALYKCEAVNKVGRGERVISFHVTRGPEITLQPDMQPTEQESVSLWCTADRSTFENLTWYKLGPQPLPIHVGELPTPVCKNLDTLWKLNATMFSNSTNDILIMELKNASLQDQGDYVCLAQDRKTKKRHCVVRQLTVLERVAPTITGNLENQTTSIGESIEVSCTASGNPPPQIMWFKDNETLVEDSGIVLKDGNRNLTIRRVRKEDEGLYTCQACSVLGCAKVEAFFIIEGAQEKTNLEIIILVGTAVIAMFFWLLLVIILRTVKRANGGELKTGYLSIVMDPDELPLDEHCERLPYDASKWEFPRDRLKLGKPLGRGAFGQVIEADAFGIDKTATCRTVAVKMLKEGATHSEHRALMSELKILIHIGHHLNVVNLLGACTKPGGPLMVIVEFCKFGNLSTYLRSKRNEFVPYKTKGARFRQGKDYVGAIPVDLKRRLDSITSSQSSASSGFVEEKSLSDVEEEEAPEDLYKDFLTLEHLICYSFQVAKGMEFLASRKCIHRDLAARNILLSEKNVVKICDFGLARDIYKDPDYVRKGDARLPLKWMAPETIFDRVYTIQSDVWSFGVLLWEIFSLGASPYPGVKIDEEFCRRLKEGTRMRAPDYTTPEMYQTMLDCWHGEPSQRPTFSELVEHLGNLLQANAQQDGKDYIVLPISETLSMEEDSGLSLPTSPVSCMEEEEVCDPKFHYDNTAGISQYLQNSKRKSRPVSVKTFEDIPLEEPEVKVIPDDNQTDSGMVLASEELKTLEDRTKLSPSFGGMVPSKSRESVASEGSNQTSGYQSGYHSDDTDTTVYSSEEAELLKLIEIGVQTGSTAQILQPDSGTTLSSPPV
Procedure: as §3, §4

MOLM-13-QR2 cells = test: cells; settings: Homo sapiens, read-out: IC50, cell viability
[1] = tested on: midostaurin-resistant MOLM-14 cells; test: cells; settings: Homo sapiens, MOLM-14, read-out: IC50 against midostaurin-resistant MOLM-14 cells

CCc1nc(C(N)=O)c(Nc2ccc(N3CCC(N4CCN(C)CC4)CC3)c(OC)c2)nc1NC1CCOCC1 [Gilteritinib, gilteritinib]
EC50, tumor growth inhibition (MOLM-14-MR2 tumors): > 10 mg/kg
IC50 (MOLM-14-MR2 cells): 29.1 nM
IC50 (MOLM-13-QR cells): 9.68 nM
Durability of inhibition of FLT3 and ERK phosphorylation after removal of inhibitor (FLT3 signaling): no significant inhibitory activity starting 1 hour after removal
Long-term durability of inhibition of FLT3 signaling after compound withdrawal (FLT3 signaling): no longer able to inhibit FLT3 signaling at 24 hours
IC50 (OCI-AML3 cells): 1420 nM
IC50 (MV4-11 cells): 2.01 nM
IC50 (THP-1 cells): 1530 nM
IC50 (MOLM-13 cells; 72 h, MOLM-13, FLT3-ITD, 3 days, Supplementary Table 3): 10 nM
IC50 (MOLM-13 cells; parental MOLM-13, FLT3-ITD, Supplementary Table 4): 7.89 nM
IC50 (EOL-1 cells): 30.9 nM
IC50 (Kasumi-1 cells): 160 nM
IC50 (MOLM-14 cells; MOLM-14, FLT3-ITD, Supplementary Table 3): 7.41 nM
IC50 (MOLM-14 cells; parental MOLM-14, FLT3-ITD, Figure 4B): 7.87 nM
IC50 (HL-60 cells): 391 nM
IC50 (MOLM-14-MR cells): 49.3 nM
TGI (MV4-11 tumors; 1 mg/kg oral once per day): 48%
TGI (MV4-11 tumors; 3 mg/kg oral once per day): 82%
TGI (MV4-11 tumors; 10 mg/kg oral once per day): 100%
EC90, tumor growth inhibition (MV4-11 tumors; oral once per day): 5.06 mg/kg
Kd (PDGFRα): 53 nM
Kd (PDGFRβ): 240 nM
Kd (KIT): 86 nM
Kd (RET): 11 nM
Kd (FLT1): 380 nM
Kd (ULK2): 700 nM
Kd (CSF1R/FMS): 46 nM
Kd (MEK5): 7.8 nM
Kd (FLT4): 150 nM
Kd (KDR/VEGFR2): 100 nM
IC50 (MOLM-13-QR2 cells): 43 nM
IC50 [1]: 29.1 to 49.3 nM
